≈ marks a conversion by molar mass, not a printed value.
Test system: M. tuberculosis No. 74
Assay: In vitro antibacterial activity (2): MIC by broth dilution method
Format: cell-based, Mycobacterium tuberculosis
Conditions: rifampicin-resistant strain; for MIC: Mycobacterium tuberculosis, NO.74, Middlebrook 7H9 broth, 35° C. for 10–21 days, read-out: MICs against Mycobacterium tuberculosis, M. tuberculosis No. 74

Compound | MIC [µg/mL] | antibacterial activity against M. tuberculosis No. 74 (in words)
CO[C@H]1[C@@H](O)[C@H](n2ccc(=O)[nH]c2=O)O[C@@H]1[C@@H](O[C@H]1OC(C(=O)Nc2ccc(F)c(F)c2)=C[C@H](O)[C@@H]1O)C(N)=O [Exemplification Compound No. 3712] | 8 (≈ 14 µM) | excellent antibacterial activity
CO[C@H]1/C=C/O[C@@]2(C)Oc3c(C)c(O)c4c(O)c(c(/C=N/N5CCN(C)CC5)c(O)c4c3C2=O)NC(=O)/C(C)=C\C=C\[C@H](C)[C@H](O)[C@@H](C)[C@@H](O)[C@@H](C)[C@H](OC(C)=O)[C@@H]1C [rifampicin, reference compound] | 128 (≈ 156 µM) | –

— patent US7157442B2, “Antibacterial compound” (Sankyo Company, Limited, priority 1999, dated 2007)
